Experimental data from patent US6706664B1, “Benzoxazole compounds, process for the preparation thereof and herbicides” (UBE Industries, Ltd., priority 1999, dated 2004).

Tests used:
Set-up in all cases: key: 0: normal development; 1: Less damaged; 2: Slightly damaged; 3: Moderately damaged; 4: Severely damaged; 5: All killed
[1] = tested on: young rice plant; test: Herbicidal test for paddy field; assay type: in vivo; details: paddy field pot, 500 g/ha dropwise at 1.5 leaf stage of barnyardgrass, 3 weeks, rank vs non-treated
Outline: (§1)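 Flooded pots (3 cm water) of alluvial soil were sown with seeds or tubers, and wettable-powder formulations in 0.05% surfactant water were dripped in at 500 g/ha at the 1.5-leaf stage of barnyardgrass. Plants were kept 3 weeks in a glasshouse at an average 25° C. Damage was scored 0 (normal) to 5 (all killed) against untreated controls.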

[2] = tested on: bulrush; test: Herbicidal test for paddy field; assay type: in vivo, Scrips juncoides; details: paddy field pot, 500 g/ha dropwise at 1.5 leaf stage of barnyardgrass, 3 weeks, rank vs non-treated
Outline: as §1

[3] = tested on: corn; test: Soil treatment test for upland field; assay type: in vivo; details: 500 g/ha, glass house 25° C., 3 weeks
Outline: (§2)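 Seeds planted in Wagner pots of Ube soil (alluvial) and covered. Wettable powder diluted in 0.05% surfactant water, sprayed uniformly onto soil at 500 g/ha effective rate. Grown 3 weeks, glasshouse, mean 25° C, then damage rated visually 0–5.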

[4] = tested on: cotton; test: Soil treatment test for upland field; assay type: in vivo; details: 500 g/ha, glass house 25° C., 3 weeks
Outline: as §2

[5] = tested on: solgum; test: Soil treatment test for upland field; assay type: in vivo; details: 500 g/ha, glass house 25° C., 3 weeks
Outline: as §2

[6] = tested on: soybean; test: Soil treatment test for upland field; assay type: in vivo; details: 500 g/ha, glass house 25° C., 3 weeks
Outline: as §2

[7] = tested on: sugar beat; test: Soil treatment test for upland field; assay type: in vivo; details: 500 g/ha, glass house 25° C., 3 weeks
Outline: as §2

[8] = tested on: wheat; test: Soil treatment test for upland field; assay type: in vivo; details: 500 g/ha, glass house 25° C., 3 weeks
Outline: as §2

[9] = tested on: cotton; test: Foliar spread test for upland field; assay type: in vivo; details: foliar spray 500 ppm, 3 weeks, rank vs non-treated
Outline: (§3)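 Wettable powders at 500 ppm, with 0.5% surfactant, were sprayed uniformly over plants raised for roughly 2 weeks in glasshouse pots of volcanic ash soil. Herbicidal damage rated on a 0–5 scale (5 = all killed) after a further 3 weeks at an average 25 °C.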

[10] = tested on: soybean; test: Foliar spread test for upland field; assay type: in vivo; details: foliar spray 500 ppm, 3 weeks, rank vs non-treated
Outline: as §3

[11] = tested on: sugar beat; test: Foliar spread test for upland field; assay type: in vivo; details: foliar spray 500 ppm, 3 weeks, rank vs non-treated
Outline: as §3

[12] = tested on: wheat; test: Foliar spread test for upland field; assay type: in vivo; details: foliar spray 500 ppm, 3 weeks, rank vs non-treated
Outline: as §3

[13] = tested on: Large crabgrass; test: Foliar spread test for upland field; assay type: in vivo, Digitaria adscendens; details: foliar spray 500 ppm, 3 weeks, rank vs non-treated
Outline: (§4)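 Crops and weeds grown about 2 weeks in volcanic ash soil in a glasshouse, then sprayed with wettable-powder formulations diluted to 500 ppm in water with 0.5% surfactant. After 3 weeks at 25 °C, injury scored visually 0 (normal) to 5 (all killed).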

[14] = tested on: barnyardgrass; test: Foliar spread test for upland field; assay type: in vivo, Echinochloa crusgalli; details: foliar spray 500 ppm, 3 weeks, rank vs non-treated
Outline: as §4

[15] = tested on: morning glory; test: Foliar spread test for upland field; assay type: in vivo, Ipomoea spps.; details: foliar spray 500 ppm, 3 weeks, rank vs non-treated
Outline: as §4

[16] = tested on: flat sedge; test: Herbicidal test for paddy field; assay type: in vivo, Cyperus serotinus; details: paddy field pot, 500 g/ha dropwise at 1.5 leaf stage of barnyardgrass, 3 weeks, rank vs non-treated
Description: Wagner pots, each having an area of 1/5000 are, were packed with Ube soil (alluvial soil) and planted with seeds or tubers of young rice plant, barnyardgrass, bulrush, flat sedge and monochoria. Then, the pots were filled with water to a depth of 3 cm.
Each wettable powder of the desired compounds (I) shown in Table 1 prepared in accordance with Example 2 was diluted with water containing a surfactant (0.05%) and subjected to dropwise addition treatment by using pipet so that an effective concentration of the compound (I) in each herbicide became 500 g/ha at 1.5 leaf stage of barnyardgrass.
These plants were controlled in a glass house at an average temperature of 25° C. for 3 weeks, and then herbicidal effects thereof were investigated.
The herbicidal effects are evaluated according to the following 6 ranks as compared with non-treated district.
(0: normal development, 1: Less damaged, 2: Slightly damaged, 3: Moderately damaged, 4: Severely damaged, 5: All killed).

SMILES | Effect Young rice plant [1] | Effect Bulrush [2] | Effects Corn [3] | Effects Cotton [4] | Effects Solgum [5] | Effects Soybean [6] | Effects Sugar beat [7] | Effects Wheat [8] | Effects Cotton [9] | Effects Soybean [10] | Effects Sugar beat [11] | Effects Wheat [12] | Effects Large crabgrass [13] | Effects Barnyardgrass [14] | Effects Morning glory [15] | Effect Flat sedge [16]
CCCC(Oc1cccc(C(F)(F)F)c1)c1nc2cc(C(F)(F)F)ccc2o1 (stereo not drawn) [Compound 200] | 0 | 2 | 1 | 1 | 1 | 0 | 5 | 1 | 3 | 3 | 4 | 2 | 3 | 2 | 3 | 
CCCC(Oc1cccc(C(F)(F)F)c1)c1nc2cc(C#N)c(C#N)cc2o1 (stereo not drawn) [Compound 317] | 1 | 3 | 2 | 0 | 1 | 1 | 5 | 1 |  |  | 5 | 2 |  |  |  | 5
CCC(Oc1ccc(F)c(C(F)(F)F)c1)c1nc2cc(Br)ccc2o1 (stereo not drawn) [Compound 165] | 2 |  | 2 | 0 | 1 | 0 | 5 | 0 | 3 | 5 |  | 2 | 3 | 2 | 4 | 3
CCCC(Oc1ccc(F)c(C(F)(F)F)c1)c1nc2cc(C#N)c(Cl)cc2o1 (stereo not drawn) [Compound 533] | 2 |  | 0 | 0 | 0 | 0 | 5 | 1 |  |  | 5 | 2 | 3 | 2 | 5 | 2
CCCC(Oc1ccc(F)c(C(F)(F)F)c1)c1nc2cc(Cl)ccc2o1 (stereo not drawn) [Compound 141] | 1 | 5 | 1 |  | 2 | 2 | 5 | 0 | 3 | 4 |  | 2 | 4 | 4 | 4 | 
CCC(Oc1cccc(OC(F)(F)F)c1)c1nc2cc(C#N)c(C#N)cc2o1 (stereo not drawn) [Compound 527] | 2 | 3 | 2 | 0 | 1 | 1 | 5 | 1 |  |  | 5 | 2 | 2 |  |  | 3
CCCC(Oc1cccc(C(F)(F)F)c1)c1nc2cc(C#N)c(Cl)cc2o1 (stereo not drawn) [Compound 532] |  | 5 | 1 | 1 | 1 | 1 | 5 | 2 |  |  | 5 |  | 4 | 2 | 3 | 2
CCCC(Oc1ccc(F)c(C(F)(F)F)c1)c1nc2cc(C(F)(F)F)ccc2o1 (stereo not drawn) [Compound 199] | 1 | 5 | 1 | 2 | 1 | 2 | 5 | 0 | 3 | 4 | 3 | 1 | 2 | 2 | 4 | 
CCC(Oc1cccc(C(F)(F)F)c1)c1nc2cc(Cl)c(C)cc2o1 (stereo not drawn) [Compound 339, 1-(5-chloro-6-methylbenzoxazol-2-yl)-1-(3-(trifluoromethyl)phenoxy)propane] | 1 | 4 | 1 | 0 | 1 | 1 | 4 | 1 | 3 | 3 | 3 | 1 | 3 | 2 | 2 | 
CCCC(Oc1cccc(C(F)(F)F)c1)c1nc2cc(Cl)ccc2o1 (stereo not drawn) [Compound 142, 1-(5-chlorobenzoxazol-2-yl)-1-(3-(trifluoromethyl)phenoxy)butane] | 1 | 3 | 1 | 0 | 1 | 3 | 5 | 1 | 3 | 4 | 3 | 3 | 3 | 2 | 3 | 
CCC(Oc1cccc(C(F)(F)F)c1)c1nc2cc(F)c(C(F)(F)F)cc2o1 (stereo not drawn) [Compound 471] |  | 2 |  | 1 | 3 | 2 | 5 | 1 |  |  | 5 | 2 | 5 |  | 5 | 5
CCC(Oc1ccc(F)c(C(F)(F)F)c1)c1nc2cc(Cl)ccc2o1 (stereo not drawn) [Compound 139] | 2 | 5 | 2 | 1 | 2 | 1 | 5 | 1 | 3 | 5 |  | 2 | 2 | 2 | 5 | 
CCC(Oc1cccc(C(F)(F)F)c1)c1nc2cc(C#N)c(Cl)cc2o1 (stereo not drawn) [Compound 529] |  | 5 | 1 |  | 1 | 1 | 5 |  |  |  | 5 | 2 | 4 | 3 | 3 | 4
